pEC50: −log10 of the molar value. Entries after “also recorded” stand apart in the source; their conditions may differ.
Key:
3T3-L1 adipocytes = experiment: MTT assay, cytotoxicity of azelaic acid; type: cell-based, mouse; conditions: azelaic acid up to 500 μM, 24 hours
Experimental: In order to evaluate cytotoxicity of azelaic acid, MTT assay was performed.
The MTT assay is a test method using an ability of mitochondria reducing MTT tetrazolium, a yellow water-soluble substrate, to a blue purple water-insoluble MTT formazane […]. An MTT reagent was prepared by diluting C18H16BrN5S (Thiazoly Blue Tetrazolium Bromide) in phosphate buffered saline (PBS) at a concentration of 2 to 5 mg/ml.
First, after the 3T3-L1 adipocytes (4×10^5 cells/ml) were seeded in a 96-well plate and cultured at 37° C. under 5% CO2 conditions for 24 hours, the cultured 3T3-L1 adipocytes were treated with azelaic acid in a concentration range of 0 to 500 μM and cultured for 24 hours. After 100 μL of the MTT reagent was added to each test sample at a concentration of 4 mg/mL and cultured at 37° C. under 5% CO2 conditions for 4 hours, 100 μL of dimethyl sulfoxide (DMSO) was added thereto, and absorbance was measured at 540 nm. An absorbance value is to quantify an apoptotic effect due to toxicity using the principle that absorbance is in proportion to the number of living cells.

Olfr544 = Olfr544 (Mus musculus, UniProt E9PX47); experiment: CRE-luciferase reporter gene assay in Hana3A cell line transfected with Olfr544 expression vector; type: cell-based
Experimental: In order to evaluate an activity of azelaic acid as an Olfr544 ligand in vitro assay, reporter gene assay was performed. Generally, a degree of gene expression of the olfactory receptor (OR) in tissue cells was low and a degree of protein expression also was low, such that research into the olfactory receptor was difficult. In order to solve this problem, a Hana3A cell line was supplied from a team led by professor Hiroaki Matsunami of Duke University and used in an experiment (Zhuang H., et al., Nat. Protocol, 3:1402-1413, 2008).
The reporter gene assay was performed as follows. First, after an Olfr544 expression vector and a cAMP response element (CRE)-Luciferase reporter vector were transfected into the Hana3A cell line, the transfected Hana3A cell line was treated with azelaic acid for 18 hours. Then, a luciferase activity was measured using a Firefly luciferase (FL) assay kit, and a dose response curve (DRC) was drawn based on the measured luciferase activity, thereby calculating a 50% effective concentration (EC50) corresponding to an index for determining an effect as a ligand (agonist).

HepG2 cells = experiment: Treatment of human liver tissue cell line HepG2 with azelaic acid; type: cell-based; conditions: azelaic acid 50 μM
C57BL/6 mice = experiment: Subcutaneous injection in high-fat diet fed male C57BL/6 mice; type: in vivo, mouse; conditions: high-fat diet male C57BL/6 mice, 50 mg/kg subcutaneously, 3.5 weeks
Experimental: After 4 weeks of high-fat diet feeding in male C57BL/6 mice (7-8 per group), 50 mg/kg of azelaic acid was administered subcutaneously for 3.5 weeks, and Saxenda, which is used as an anti-obesity drug, was administered as a positive control.

Chain of Olfr544 (E9PX47 entry or part of it): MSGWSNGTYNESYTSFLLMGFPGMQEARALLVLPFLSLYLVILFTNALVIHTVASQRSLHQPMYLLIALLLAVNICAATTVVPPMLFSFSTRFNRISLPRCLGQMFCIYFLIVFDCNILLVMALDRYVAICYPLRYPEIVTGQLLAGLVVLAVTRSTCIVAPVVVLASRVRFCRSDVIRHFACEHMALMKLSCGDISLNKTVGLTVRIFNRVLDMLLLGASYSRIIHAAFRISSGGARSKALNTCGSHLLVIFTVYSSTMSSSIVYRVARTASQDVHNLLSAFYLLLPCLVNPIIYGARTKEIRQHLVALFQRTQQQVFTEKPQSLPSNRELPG

- pEC50 (Olfr544; Olfr544 + CRE-Luciferase reporter in Hana3A cells, 18 hours): 4.53
- Olfr544 activity (Olfr544; concentration range of 1 to 1000 μM): concentration-dependently increased
SMILES: O=C(O)CCCCCCCC(=O)O [azelaic acid, nonanedioic acid]
- cytotoxicity (MTT assay) (3T3-L1 adipocytes): cytotoxicity was not observed; also recorded: toxicity was not exhibited
- triglyceride concentration (HepG2 cells; HepG2 cells (lipid-loaded)): significantly decreased
- CREB phosphorylation (p-CREB) (HepG2 cells; HepG2 cells): increased
- cAMP-PKA signaling pathway (HepG2 cells; HepG2 cells): activated
- expression of fatty acid oxidation-related gene PPAR-α (HepG2 cells; HepG2 cells): increased
- fatty acid oxidation (FA oxidation) (HepG2 cells; HepG2 cells): increased
- body weight (C57BL/6 mice): reduced body weight
- subcutaneous fat (C57BL/6 mice): reducing subcutaneous fat

Reference: US20220249415A1, “COMPOSITION OF AZELAIC ACID HAVING ADIPOSE TRIGLYCERIDE HYDROLYSIS EFFECT” (Korea University Research and Business Foundation, priority 2018, published 2022)
